pIC50: −log10 of the molar value.

The target of the experiment is recombinant human LRRK2 (catalytic domain only [amino acids 970-2527], GST-tagged) (Homo sapiens (Human), UniProt Q5S007). Nature of the experiment: LRRK2 Enzymatic Assay. The experiment is classed as biochemical. The settings on record: LRRKtide substrate, [32P]-ATP. The method in brief: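 GST-tagged catalytic domain (aa 970-2527) at 30 nM with 20 μM LRRKtide in HEPES pH 7.5/MgCl2 buffer, 1% DMSO; compounds (10 μM to 0.5 nM) preincubated 20 min, then [32P]-ATP added for 2 h at room temperature. P81 phosphocellulose capture; activity as % of vehicle, IC50 by curve fit.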
Sequence of recombinant human LRRK2 (catalytic domain only [amino acids 970-2527], GST-tagged) (Q5S007 970-2527): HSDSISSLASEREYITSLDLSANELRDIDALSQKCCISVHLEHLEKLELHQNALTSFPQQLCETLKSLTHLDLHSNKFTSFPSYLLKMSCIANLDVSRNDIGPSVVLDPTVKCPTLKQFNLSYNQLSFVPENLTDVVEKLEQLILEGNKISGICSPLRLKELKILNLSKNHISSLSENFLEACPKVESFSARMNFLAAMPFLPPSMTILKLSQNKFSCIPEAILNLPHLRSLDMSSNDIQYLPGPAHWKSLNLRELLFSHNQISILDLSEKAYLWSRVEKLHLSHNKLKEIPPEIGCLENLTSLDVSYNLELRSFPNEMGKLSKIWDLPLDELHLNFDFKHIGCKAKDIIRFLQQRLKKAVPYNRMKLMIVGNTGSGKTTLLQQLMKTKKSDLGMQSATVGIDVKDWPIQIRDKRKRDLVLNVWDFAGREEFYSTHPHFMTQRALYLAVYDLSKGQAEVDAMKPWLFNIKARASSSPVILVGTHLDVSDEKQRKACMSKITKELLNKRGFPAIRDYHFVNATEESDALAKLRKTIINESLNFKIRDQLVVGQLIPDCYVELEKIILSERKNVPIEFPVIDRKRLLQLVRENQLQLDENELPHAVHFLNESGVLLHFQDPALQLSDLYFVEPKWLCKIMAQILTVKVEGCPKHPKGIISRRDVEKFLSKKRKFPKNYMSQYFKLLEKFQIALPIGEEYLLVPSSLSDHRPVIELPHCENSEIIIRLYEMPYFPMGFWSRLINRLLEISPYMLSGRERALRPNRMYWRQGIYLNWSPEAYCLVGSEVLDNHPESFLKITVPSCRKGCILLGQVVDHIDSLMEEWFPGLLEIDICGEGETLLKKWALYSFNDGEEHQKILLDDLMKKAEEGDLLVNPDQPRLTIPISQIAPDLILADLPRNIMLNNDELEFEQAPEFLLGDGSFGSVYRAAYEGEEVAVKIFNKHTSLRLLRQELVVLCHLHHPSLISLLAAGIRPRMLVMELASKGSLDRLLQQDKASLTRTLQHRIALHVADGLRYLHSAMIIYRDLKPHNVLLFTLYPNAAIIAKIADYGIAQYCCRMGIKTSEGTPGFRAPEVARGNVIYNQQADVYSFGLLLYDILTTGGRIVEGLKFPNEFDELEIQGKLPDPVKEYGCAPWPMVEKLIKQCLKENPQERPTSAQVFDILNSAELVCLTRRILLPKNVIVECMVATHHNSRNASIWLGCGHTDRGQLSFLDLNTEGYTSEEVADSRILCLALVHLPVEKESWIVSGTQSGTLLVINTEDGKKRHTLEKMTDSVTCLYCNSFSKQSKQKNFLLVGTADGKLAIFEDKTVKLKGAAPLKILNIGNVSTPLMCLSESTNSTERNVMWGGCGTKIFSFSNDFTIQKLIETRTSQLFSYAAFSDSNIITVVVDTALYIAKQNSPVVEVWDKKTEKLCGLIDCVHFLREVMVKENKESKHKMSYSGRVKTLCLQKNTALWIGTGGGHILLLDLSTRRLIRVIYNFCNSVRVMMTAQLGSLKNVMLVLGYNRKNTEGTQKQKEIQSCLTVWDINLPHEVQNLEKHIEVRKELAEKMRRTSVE
The term pIC50 denotes −log10 of the IC50, conventionally taken in molar units. `CC(=O)N[C@H]1CC[C@H](COc2nc(Nc3cn(C)nc3C)ncc2F)CC1` [Example 194, N-((1R,4R)-4-(((2-((1,3-dimethyl-1H-pyrazol-4-yl)amino)-5-fluoropyrimidin-4-yl)oxy)methyl)cyclo-hexyl)acetamide]: the negative logarithm of the IC50 (pIC50) was 6.70 to 7.30.

Turning to `CC(=O)N[C@H]1CC[C@H](COc2nc(Nc3cn(C(C)C)nc3C)ncc2F)CC1` [Example 195, N-((1R,4R)-4-(((5-fluoro-2-((1-isopropyl-3-methyl-1H-pyrazol-4-yl)amino)pyrimidin-4-yl)oxy)methyl)cyclo-hexyl)acetamide], the pIC50 was > 7.30.

Consider `CC(=O)N[C@H]1CC[C@H](COc2nc(Nc3cn(C4CC4)nc3C)ncc2F)CC1` [Example 196, N-((1R,4R)-4-(((2-((1-cyclopropyl-3-methyl-1H-pyrazol-4-yl)amino)-5-fluoropyrimidin-4-yl)oxy)methyl)cyclo-hexyl)acetamide], for which the negative logarithm of the IC50 (pIC50) was > 7.30.

For `CC(=O)N[C@H]1CC[C@H](COc2nc(Nc3cn(C(F)F)nc3C)ncc2F)CC1` [Example 197, N-((1R,4R)-4-(((2-((1-(difluoromethyl)-3-methyl-1H-pyrazol-4-yl)amino)-5-fluoropyrimidin-4-yl)oxy)methyl)cyclo-hexyl)acetamide], the pIC50 was 6.70 to 7.30.

As for `CCc1nn(C)cc1Nc1ncc(F)c(OC[C@H]2CC[C@H](NC(C)=O)CC2)n1` [Example 198, N-((1R,4R)-4-(((2-((3-ethyl-1-methyl-1H-pyrazol-4-yl)amino)-5-fluoropyrimidin-4-yl)oxy)methyl)cyclo-hexyl)acetamide], the pIC50 is > 7.30.

For the compound `CC(=O)N[C@H]1CC[C@H](COc2nc(Nc3cnn(C(C)(C)C#N)c3C)ncc2F)CC1` [Example 199, N-((1R,4R)-4-(((2-((1-(2-cyanopropan-2-yl)-5-methyl-1H-pyrazol-4-yl)amino)-5-fluoropyrimidin-4-yl)oxy)methyl)cyclo-hexyl)acetamide], the negative-log IC50 (pIC50) was > 7.30.

Turning to `CC(=O)N[C@H]1CC[C@H](COc2nc(Nc3cnn(C(F)F)c3C)ncc2F)CC1` [Example 200, N-((1R,4R)-4-(((2-((1-(difluoromethyl)-5-methyl-1H-pyrazol-4-yl)amino)-5-fluoropyrimidin-4-yl)oxy)methyl)cyclo-hexyl)acetamide], the negative-log IC50 (pIC50) was > 7.30.

Regarding `CC(=O)N[C@H]1CC[C@H](COc2nc(Nc3cn(C)nc3Cl)ncc2F)CC1` [Example 201, N-((1R,4R)-4-(((2-((3-chloro-1-methyl-1H-pyrazol-4-yl)amino)-5-fIuoropyrimidin-4-yl)oxy)methyl)cyclo-hexyl)acetamide], the negative logarithm of the IC50 (pIC50) was > 7.30.

`CC(=O)N[C@H]1CC[C@H](COc2nc(Nc3cn(C(C)C)nc3Cl)ncc2F)CC1` [Example 202, N-((1R,4R)-4-(((2-((3-chloro-1-isopropyl-1H-pyrazol-4-yl)amino)-5-fluoropyrimidin-4-yl)oxy)methyl)cyclo-hexyl)acetamide]: the pIC50 was > 7.30.

As for `CC(=O)N[C@H]1CC[C@H](COc2nc(Nc3cn(C4CC4)nc3Cl)ncc2F)CC1` [Example 203, N-((1R,4R)-4-(((2-((3-chloro-1-cyclopropyl-1H-pyrazol-4-yl)amino)-5-fluoropyrimidin-4-yl)oxy)methyl)cyclo-hexyl)acetamide], the negative-log IC50 (pIC50) is > 7.30.

Turning to `CC(=O)N[C@H]1CC[C@H](COc2nc(Nc3cnn(CCO)c3Cl)ncc2F)CC1` [Example 204, N-((1R,4R)-4-(((2-((5-chloro-1-(2-hydroxyethyl)-1H-pyrazol-4-yl)amino)-5-fluoropyrimidin-4-yl)oxy)methyl)cyclo-hexyl)acetamide], the pIC50 was > 7.30.

For `COCCn1ncc(Nc2ncc(F)c(OC[C@H]3CC[C@H](NC(C)=O)CC3)n2)c1Cl` [Example 205, N-((1R,4R)-4-(((2-((5-chloro-1-(2-methoxyethyl)-1H-pyrazol-4-yl)amino)-5-fluoropyrimidin-4-yl)oxy)methyl)cyclo-hexyl)acetamide], the pIC50 was > 7.30.

On to `CC(=O)N[C@H]1CC[C@H](COc2nc(Nc3cnn(C4CCOCC4)c3Cl)ncc2F)CC1` [Example 206, N-((1R,4R)-4-(((2-((5-chloro-1-(tetrahydro-2H-pyran-4-yl)-1H-pyrazol-4-yl)amino)-5-fluoropyrimidin-4-yl)oxy)methyl)cyclo-hexyl)acetamide], for which the pIC50 was > 7.30.

In the case of `COc1nn(C(C)C)cc1Nc1ncc(F)c(OC[C@H]2CC[C@H](NC(C)=O)CC2)n1` [Example 207, N-((1R,4R)-4-(((5-fluoro-2-((1-isopropyl-3-methoxy-1H-pyrazol-4-yl)amino)pyrimidin-4-yl)oxy)methyl)cyclo-hexyl)acetamide], the negative logarithm of the IC50 (pIC50) was 6.70 to 7.30.

For the compound `COc1nn(C2CC2)cc1Nc1ncc(F)c(OC[C@H]2CC[C@H](NC(C)=O)CC2)n1` [Example 208, N-((1R,4R)-4-(((2-((1-cyclopropyl-3-methoxy-1H-pyrazol-4-yl)amino)-5-fluoropyrimidin-4-yl)oxy)methyl)cyclo-hexyl)acetamide], the pIC50 is > 7.30.

Take `O=C(N[C@H]1CC[C@H](COc2nc(Nc3ccc(N4C5CCC4COC5)cc3)ncc2F)CC1)C(F)(F)F` [Example 209, N-((1R,4R)-4-(((2-((4-(3-oxa-8-aza-bicyclo[3.2.1]octan-8-yl)phenyl)amino)-5-fluoro-pyrimidin-4-yl)oxy)methyl)cyclohexyl)-2,2,2-trifluoro-acetamide]: the pIC50 was > 7.30.

On to `CC(C)n1cc(Nc2ncc(F)c(OC[C@H]3CC[C@H](NC(=O)C(F)(F)F)CC3)n2)cn1` [Example 210, 2,2,2-trifluoro-N-((1R,4R)-4-(((5-fluoro-2-((1-isopropyl-1H-pyrazol-4-yl)amino)pyrimidin-4-yl)oxy)methyl)cyclohexyl) acetamide], for which the pIC50 is > 7.30.

`Cc1nn(C(C)C)cc1Nc1ncc(F)c(OC[C@H]2CC[C@H](NC(=O)C(F)(F)F)CC2)n1` [Example 211, 2,2,2-trifluoro-N-((1R,4R)-4-(((5-fluoro-2-((1-isopropyl-3-methyl-1H-pyrazol-4-yl)amino)pyrimidin-4-yl)oxy)methyl)cyclohexyl) acetamide]: the pIC50 is > 7.30.

For the compound `Cc1nn(C(C)(C)C#N)cc1Nc1ncc(F)c(OC[C@H]2CC[C@H](NC(=O)C(F)(F)F)CC2)n1` [Example 212, N-((1R,4R)-4-(((2-((1-(2-cyanopropan-2-yl)-3-methyl-1H-pyrazol-4-yl)amino)-5-fluoro-pyrimidin-4-yl)oxy)methyl)cyclohexyl)-2,2,2-trifluoro-acetamide], the pIC50 is 6.70 to 7.30.

Regarding `COc1nn(C(C)C)cc1Nc1ncc(F)c(OC[C@H]2CC[C@H](NC(=O)C(F)(F)F)CC2)n1` [Example 213, 2,2,2-trifluoro-N-((1R,4R)-4-(((5-fluoro-2-((1-isopropyl-3-methoxy-1H-pyrazol-4-yl)amino)pyrimidin-4-yl)oxy)methyl)cyclohexyl) acetamide], the negative-log IC50 (pIC50) was > 7.30.

For the compound `COc1cc(C(=O)N2CCOCC2)c(F)cc1Nc1ncc(F)c(OC[C@H]2CC[C@H](O)CC2)n1` [Example 214, (2-fluoro-4-((5-fluoro-4-(((1R,4R)-4 hydroxycyclohexyl)methoxy)pyrimidin-2-yl)amino)-5-methoxyphenyl)(morpholino)methanone], the pIC50 was 6.70 to 7.30.

Take `O[C@H]1CC[C@H](COc2nc(Nc3ccc(N4CC5(CCOC5)C4)cc3)ncc2F)CC1` [Example 215, (1R,4R)-4-(((2-((4-(6-oxa-2-azaspiro[3.4]octan-2-yl)phenyl)amino)-5-fluoropyrimidin-4-yl)oxy)methyl)cyclohexan-1-ol]: the pIC50 was > 7.30.

With `Cn1cc(Nc2ncc(F)c(OC[C@H]3CC[C@H](O)CC3)n2)cn1` [Example 216, (1R,4R)-4-(((5-fluoro-2-((1-methyl-1H-pyrazol-4-yl)amino)pyrimidin-4-yl)oxy)methyl)cyclohexan-1-ol], the pIC50 is > 7.30.

Turning to `CCn1cc(Nc2ncc(F)c(OC[C@H]3CC[C@H](O)CC3)n2)cn1` [Example 217, (1R,4R)-4-(((2-((1-ethyl-1H-pyrazol-4-yl)amino)-5-fluoropyrimidin-4-yl)oxy)methyl)cyclohexan-1-ol], the negative-log IC50 (pIC50) was 6.70 to 7.30.

On to `CC(C)n1cc(Nc2ncc(F)c(OC[C@H]3CC[C@H](O)CC3)n2)cn1` [Example 218, (1R,4R)-4-(((5-fluoro-2-((1-isopropyl-1H-pyrazol-4-yl)amino)pyrimidin-4-yl)oxy)methyl)cyclohexan-1-ol], for which the pIC50 is 6.70 to 7.30.

With `CC(C)n1cc(Nc2ncc(F)c(OC[C@H]3CC[C@@H](O)CC3)n2)cn1` [Example 219, (1S,4S)-4-(((5-fluoro-2-((1-isopropyl-1H-pyrazol-4-yl)amino)pyrimidin-4-yl)oxy)methyl)cyclohexan-1-ol], the pIC50 is < 6.40.

Regarding `O[C@H]1CC[C@H](COc2nc(Nc3cnn(C4CC4)c3)ncc2F)CC1` [Example 220, (1R,4R)-4-(((2-((1-cyclopropyl-1H-pyrazol-4-yl)amino)-5-fluoropyrimidin-4-yl)oxy)methyl)cyclohexan-1-ol], the pIC50 was 6.70 to 7.30.

Turning to `CC(C)(C#N)n1cc(Nc2ncc(F)c(OC[C@H]3CC[C@H](O)CC3)n2)cn1` [Example 221], the pIC50 was 6.70 to 7.30.

In the case of `O[C@H]1CC[C@H](COc2nc(Nc3cnn(C(F)(F)F)c3)ncc2F)CC1` [Example 222, (1R,4R)-4-(((5-fluoro-2-((1-(trifluoromethyl)-1H-pyrazol-4-yl)amino)pyrimidin-4-yl)oxy)methyl)cyclohexan-1-ol], the pIC50 is < 6.40.

As for `O[C@H]1CC[C@H](COc2nc(Nc3cnn(CC(F)(F)F)c3)ncc2F)CC1` [Example 223, (1R,4R)-4-(((5-fluoro-2-((1-(2,2,2-trifluoroethyl)-1H-pyrazol-4-yl)amino)pyrimidin-4-yl)oxy)methyl)cyclohexan-1-ol], the pIC50 is 6.70 to 7.30.

As to `O[C@H]1CC[C@H](COc2nc(Nc3cnn(CCF)c3)ncc2F)CC1` [Example 224, (1R,4R)-4-(((5-fluoro-2-((1-(2-fluoroethyl)-1H-pyrazol-4-yl)amino)pyrimidin-4-yl)oxy)methyl)cyclohexan-1-ol], the pIC50 was > 7.30.

The values are drawn from patent US11578061B2, “Inhibitors of LRRK2 kinase” (Halia Therapeutics, Inc., priority 2021, dated 2023).
